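In this assay, cells in 96-well plates receive the compound at five concentrations for 48 hours. Endpoints are linearly interpolated between the surrounding concentrations. TGI is the concentration that stops growth completely.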
Experiments:
Test in all cases: DTP human tumour cell line panel, 48 h
PC-3 prostate = tested on: PC-3 prostate
SK-MEL-2 melanoma = tested on: SK-MEL-2 melanoma
HS 578T breast = tested on: HS 578T breast
UACC-62 melanoma = tested on: UACC-62 melanoma
HT29 colon = tested on: HT29 colon
NCI/ADR-RES ovarian = tested on: NCI/ADR-RES ovarian
A549 NSCLC = tested on: A549 NSCLC
OVCAR-4 ovarian = tested on: OVCAR-4 ovarian
HCT-116 colon = tested on: HCT-116 colon
HCT-15 colon = tested on: HCT-15 colon

| SMILES | TGI (PC-3 prostate) [µM] | TGI (SK-MEL-2 melanoma) [µM] | TGI (HS 578T breast) [µM] | TGI (UACC-62 melanoma) [µM] | TGI (HT29 colon) [µM] | TGI (NCI/ADR-RES ovarian) [µM] | TGI (A549 NSCLC) [µM] | TGI (OVCAR-4 ovarian) [µM] | TGI (HCT-116 colon) [µM] | TGI (HCT-15 colon) [µM] |
| --- | --- | --- | --- | --- | --- | --- | --- | --- | --- | --- |
| CC1=C(C(=O)OC(C)C)C(c2cccc([N+](=O)[O-])c2)C(C(=O)OC(CO[N+](=O)[O-])CO[N+](=O)[O-])=C(C)N1 (stereo not given) | > 32.6 | 5.61 | > 41.9 | 9.58 | 21 | > 25.2 | > 100 | 20.9 | 9.36 | 19 |
| CCOC(=O)c1c(C)n(CCN2CCN(C)CC2)c2ccc(OC)cc12 | > 100 | 35.3 | > 100 | 30.7 | 71.2 | > 100 | > 100 | > 100 | > 100 | 95.8 |
| COc1ccc(/C=C(\C#N)c2nc(-c3cc4ccccc4oc3=O)cs2)cc1 | > 100 | > 100 | > 100 | 49.3 | > 100 | > 100 | > 100 | 58.8 | > 100 | > 100 |
| CCCCC[C@@H]1OC(=O)[C@@]2(CC3c4ccccc4C2c2ccccc23)[C@H]1C(=O)OC | > 100 | > 100 | > 100 | > 100 | > 100 | > 100 | > 100 | > 100 | > 100 | > 100 |
| CCOc1cc(C=Nc2ccc(Oc3ccc(Cl)cc3)c(Cl)c2)ccc1O | 88.7 | 56.4 | 45.4 | 50.9 | 46.6 | 52.9 | > 100 | 80.4 | 37.8 | 47.3 |
| C=CC(=O)N1C/C(=C\c2ccc(F)cc2)C(=O)/C(=C/c2ccc(F)cc2)C1 | 1.79 | 2.69 | 0.876 | 0.223 | 0.285 | 20.1 | 4.47 | 1.85 | 0.105 | 0.433 |
| COc1cc2c(cc1OCc1ccccc1)NC(=O)[C@@H]1C[C@@H](O)CN1C2=O | > 100 | > 100 | > 100 | > 100 | > 100 | > 100 | > 100 | > 100 | > 100 | > 100 |

Source: PubChem BioAssay (NCI)
